Test results taken from patent US8450357B2, “Compositions comprising an aryl pyrazole and/or a formamidine, methods and uses thereof” (Merial Limited, priority 2008, dated 2013).
Like-named read-outs stand apart in the source and are kept apart here.

Assays:
Format in all cases: in vivo
[1] = system: Rhipicephalus sanguineus ticks; experiment: Study C: tick efficacy of Compound 1 and fipronil alone and with amitraz in dogs
Procedure: The effectiveness of Compound 1 alone, fipronil alone, Compound 1 in combination with amitraz, or fipronil in combination with amitraz, when administered once as topical solutions to dogs against induced infestations of Rhipicephalus sanguineus and Ctenocephalides felis were determined in a third clinical study. Thirty-six beagles (18 males and 18 females) were selected for the study. Six replicates of 6 animals each were formed. Treatment Group 1 dogs were treated with a placebo. Treatment Groups 2, 3, 4, 5 and 6 received their respective treatments as a topical spot-on application once on Day 0. Each formulation included diethyleneglycol monoethyl ether (transcutol) as carrier. The Treatment Groups were: Treatment Group 2: fipronil at 0.1 mL/kg body weight (10 mg/kg); Treatment Group 3: Compound 1 at 0.1 mL/kg (10 mg/kg) body weight; Treatment Group 4: Compound 1 at 0.2 mL/kg (20 mg/kg) body weight; Treatment Group 5: Compound 1 at 0.1 mL/kg (10 mg/kg) body weight plus amitraz at 0.04 mL/kg (8 mg/kg) body weight; Treatment Group 6: fipronil at 0.1 mL/kg (10 mg/kg) body weight plus amitraz at 0.04 mL/kg (8 mg/kg) body weight. Treatment was applied by parting the hair and applying the formulation(s) directly onto the skin on one spot at the midline of the neck, except for Groups 4, 5 and 6 which were applied in approximately equal volumes on two spots, one spot between the base of the skull and the shoulder blades and the other at the front of the shoulder blades.
All dogs were infested with approximately 50 Rhipicephalus sanguineus ticks on Days −1, 7, 14, 21, 28, 35, 42, 49 and 56. Dogs were also infested with approximately 100 Ctenocephalides felis fleas on Days −1, 8, 15, 22, 29, 36, 43, 50 and 57. […] Tables 8 and 9 below show the % efficacy of formulations comprising fipronil at 0.1 ml/kg of body weight, Compound 1 at […], and fipronil and Compound 1 both at 10 ml/kg in combination with amitraz at 0.04 ml/kg of body weight compared to control group without active compounds. The percent reduction in flea counts of the treated groups with respect to the Control group over the study is shown in FIG. 14.

Ctenocephalides felis = experiment: Study D: flea efficacy of Compound 1 and fipronil in cats
Procedure: A fourth clinical study was conducted to determine the efficacy of topically administered Compound 1 and fipronil against induced infections of Ctenocephalides felis in cats. Twenty four cats (17 males, 7 females) were included in the study. Six replicates of four cats each were formed based on decreasing Day −5 flea counts. Within replicates, cats were randomly allocated to Treatment Groups 1, 2, 3 or 4, respectively, by using a die: Group 1—untreated (vehicle control); Group 2—Compound 1 (10 mg/kg); Group 3—Compound 1 (20 mg/kg); Group 4—fipronil (10 mg/kg). Treatment was performed by topical administration of the formulations in the midline of the neck, between the base of the skull and the shoulder blades in a single spot after parting the hair. Animals were observed hourly for approximately four hours following treatment.
The cats were infested with approximately 100 Ct. felis fleas each during acclimation on Day −6 for allocation purposes, and on Days −1, 14, 21, 28, 35 and 42 for treatment efficacy evaluation purposes. The fleas were removed by combing each cat approximately 24 hours following each infestation except for the Day −1 infestation which was followed by flea removal and count on Day 1 (˜48 hours following infestation).

ticks = experiment: Efficacy of combination of fipronil with amitraz against ticks on dogs; conditions: 10 mg/kg BW of actives, topical
Procedure: (§1) A fipronil formulation (commercial product) was prepared and stored separately from amitraz. Amitraz was formulated with the same carrier. Both parts, fipronil and amitraz in solvent(s) were stored separately and applied simultaneously. Amounts applied were calculated to keep dose at 10% (w/v) each in final formulation and 10 mg/kg BW of actives in amount applied.
In brief, treatment was applied by parting the hair on the midline of the neck, between the base of the skull and the shoulder blades, and applying the formulation directly onto the skin.

fleas = experiment: Efficacy of combination of fipronil and amitraz against fleas on dogs; conditions: topical
Procedure: as §1
The amitraz and fipronil composition described in Example 10 were used in this study. […] Treatment was applied by parting the hair on the midline of the neck, between the base of the skull and the shoulder blades, and applying the formulation directly onto the skin.

[2] = system: adult brown dog ticks (Rhipicephalus sanguineus); experiment: Tick DMSO contact assay, Compound 1 with amitraz, Example 15; conditions: Rhipicephalus sanguineus
Procedure: Dosages were serially diluted using this same formulation.
Scintillation vials were treated with commercial and experimental compounds using the same procedure described in Example 12 above. The treated vials were used to determine the contact toxicity of compounds against adult brown dog ticks (Rhipicephalus sanguineus). The ticks were supplied by Ecto Services Inc. Henderson, N.C.
Unfed adult ticks were released into a metal pan and 10 living ticks were aspirated into each vial. […] Two replicates were tested for each treatment and the results were averaged. Ticks were stimulated by gently exhaling in the vials. Within the same time period, the addition of amitraz to an equal dosage of compound 1 increased mean mortality.

[3] = 6 h, read-out: 6 hour % Mortality Rep 1
[4] = 6 h, read-out: 6 hour % Mortality Rep 2
[5] = 6 h, read-out: 6 hour Avg. % Mortality
[6] = 24 h, read-out: 24 hour % Mortality Rep 1
[7] = 24 h, read-out: 24 hour % Mortality Rep 2
[8] = 24 h, read-out: 24 hour Avg. % Mortality
[9] = 48 h, read-out: 48 hour % Mortality Rep 1
[10] = 48 h, read-out: 48 hour % Mortality Rep 2
[11] = 48 h, read-out: 48 hour Avg. % Mortality

SMILES: N#Cc1nn(-c2c(Cl)cc(C(F)(F)F)cc2Cl)c(N)c1[S+]([O-])C(F)(F)F (stereo not shown) [fipronil, 5-amino-3-cyano-1-(2,6-dichloro-4-trifluoromethylphenyl)-4-trifluoromethylsulfinylpyrazole]
- % Efficacy (Tick Efficacy) ([1]; Day 1, 10 mg/kg): 88.6%
- % Efficacy (Tick Efficacy) ([1]; Day 2, 10 mg/kg): 90.9%
- % Efficacy (Tick Efficacy) ([1]; Day 8, 10 mg/kg): 99.4%
- % Efficacy (Tick Efficacy) ([1]; Day 9, 10 mg/kg): 100%
- % Efficacy (Tick Efficacy) ([1]; Day 15, 10 mg/kg): 100%
- % Efficacy (Tick Efficacy) ([1]; Day 16, 10 mg/kg): 100%
- % Efficacy (Tick Efficacy) ([1]; Day 23, 10 mg/kg): 98.8%
- % Efficacy (Tick Efficacy) ([1]; Day 30, 10 mg/kg): 100%
- % Efficacy (Tick Efficacy) ([1]; Day 37, 10 mg/kg): 99%
- % Efficacy (Tick Efficacy) ([1]; Day 44, 10 mg/kg): 98.2%
- % Efficacy (Tick Efficacy) ([1]; Day 51, 10 mg/kg): 92.8%
- % Efficacy (Tick Efficacy) ([1]; Day 58, 10 mg/kg): 82.7%
- % Efficacy against fleas (Ctenocephalides felis; Day 1, 10 mg/kg): 97.96%
- % Efficacy against fleas (Ctenocephalides felis; Day 15, 10 mg/kg): 100%
- % Efficacy against fleas (Ctenocephalides felis; Day 22, 10 mg/kg): 100%
- % Efficacy against fleas (Ctenocephalides felis; Day 29, 10 mg/kg): 95.59%
- % Efficacy against fleas (Ctenocephalides felis; Day 36, 10 mg/kg): 99.24%
- % Efficacy against fleas (Ctenocephalides felis; Day 43, 10 mg/kg): 97.81%
- Efficacy against ticks (ticks; 2 days after treatment): 90.9%
- Efficacy against ticks (ticks; 16 days after treatment): 100%
- Efficacy against ticks (ticks; 23 days after treatment): 99.3%
- Efficacy against ticks (ticks; 30 days after treatment): 53.9%
- Efficacy against ticks (ticks; 37 days after treatment): 43.9%
- Efficacy against ticks (ticks; 44 days after treatment): 37.9%
- Efficacy against fleas (fleas; 2 days after treatment): 100%
- Efficacy against fleas (fleas; 16 days after treatment): 100%
- Efficacy against fleas (fleas; 23 days after treatment): 100%
- Efficacy against fleas (fleas; 30 days after treatment): 94.4%
- Efficacy against fleas (fleas; 37 days after treatment): 63.4%
- Efficacy against fleas (fleas; 44 days after treatment): 55.9%
- Efficacy against fleas (fleas; 51 days after treatment): 74.7%

SMILES: Cc1ccc(/N=C/N(C)/C=N/c2ccc(C)cc2C)c(C)c1 [Amitraz, amitraz]
- Efficacy against ticks (ticks; 2 days after treatment): 95.1%
- Efficacy against ticks (ticks; 16 days after treatment): 96.9%
- Efficacy against ticks (ticks; 23 days after treatment): 95.0%
- Efficacy against ticks (ticks; 30 days after treatment): 64.9%
- Efficacy against ticks (ticks; 37 days after treatment): 56.2%
- Efficacy against ticks (ticks; 44 days after treatment): 28.3%
- Efficacy against fleas (fleas; 2 days after treatment): 14.3%
- Efficacy against fleas (fleas; 16 days after treatment): 12.4%
- Efficacy against fleas (fleas; 23 days after treatment): 16.3%
- Efficacy against fleas (fleas; 30 days after treatment): 20.2%
- Efficacy against fleas (fleas; 37 days after treatment): 32.5%
- Efficacy against fleas (fleas; 44 days after treatment): 25.9%
- mortality at 6.25 ppm [2, 3]: 0%
- mortality at 12.5 ppm [2, 3]: 0%
- mortality at 25 ppm [2, 3]: 0%
- mortality at 6.25 ppm [2, 4]: 0%
- mortality at 12.5 ppm [2, 4]: 0%
- mortality at 25 ppm [2, 4]: 0%
- mortality at 6.25 ppm [2, 5]: 0%
- mortality at 12.5 ppm [2, 5]: 0%
- mortality at 25 ppm [2, 5]: 0%
- mortality at 6.25 ppm [2, 6]: 0%
- mortality at 12.5 ppm [2, 6]: 0%
- mortality at 25 ppm [2, 6]: 0%
- mortality at 6.25 ppm [2, 7]: 0%
- mortality at 12.5 ppm [2, 7]: 0%
- mortality at 25 ppm [2, 7]: 0%
- mortality at 6.25 ppm [2, 8]: 0%
- mortality at 12.5 ppm [2, 8]: 0%
- mortality at 25 ppm [2, 8]: 0%
- mortality at 6.25 ppm [2, 9]: 0%
- mortality at 12.5 ppm [2, 9]: 0%
- mortality at 25 ppm [2, 9]: 10%
- mortality at 6.25 ppm [2, 10]: 0%
- mortality at 12.5 ppm [2, 10]: 0%
- mortality at 25 ppm [2, 10]: 10%
- mortality at 6.25 ppm [2, 11]: 0%
- mortality at 12.5 ppm [2, 11]: 0%
- mortality at 25 ppm [2, 11]: 10%
